Laboratory results published in the supplement of paper PMC11616607.

How the values were obtained:
Test in all cases: drug sensitivity score (DSS) from 5-point dose-response viability curve (DSS (area-under-curve based score)); higher = more sensitive (stronger growth inhibition or killing); extreme values may be limits of the assay
Settings in all cases: exposure time: 72 h; concentration range: 5 concentrations over 10,000-fold range
CAOV3 = tested on: CAOV3
Outline: (§1)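 Viability of ovarian cancer and normal ovarian cell lines was read by CellTiter-Glo luminescence after 3 days at 37°C and 5% CO2 in 384-well plates holding 1,500 cells per well. Drugs had been dispensed in DMSO or water with an Echo 550 at five concentrations over a 10,000-fold range. Using Breeze software, a drug sensitivity score was assigned per cell line and drug, higher scores meaning more sensitive, and zero means no response.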

COV318 = tested on: COV318
Outline: as §1

COV362 = tested on: COV362
Outline: as §1

HOSE1C = tested on: HOSE1C
Outline: as §1

HOSE2C = tested on: HOSE2C
Outline: as §1

JHOS2 = tested on: JHOS2
Outline: as §1

Kuramochi = tested on: Kuramochi
Outline: as §1

OV90 = tested on: OV90
Outline: as §1

OVCAR4 = tested on: OVCAR4
Outline: as §1

OVCAR5 = tested on: OVCAR5
Outline: as §1

OVCAR8 = tested on: OVCAR8
Outline: as §1

Ovsaho = tested on: Ovsaho
Outline: as §1

| SMILES | drug sensitivity score (CAOV3) | drug sensitivity score (COV318) | drug sensitivity score (COV362) | drug sensitivity score (HOSE1C) | drug sensitivity score (HOSE2C) | drug sensitivity score (JHOS2) | drug sensitivity score (Kuramochi) | drug sensitivity score (OV90) | drug sensitivity score (OVCAR4) | drug sensitivity score (OVCAR5) | drug sensitivity score (OVCAR8) | drug sensitivity score (Ovsaho) |
| --- | --- | --- | --- | --- | --- | --- | --- | --- | --- | --- | --- | --- |
| COc1cccc2c1C(=O)c1c(O)c3c(c(O)c1C2=O)C[C@@](O)(/C(CO)=N/NC(=O)CCCCCN1C(=O)C=CC1=O)C[C@@H]3O[C@H]1C[C@H](N)[C@H](O)[C@H](C)O1 [Aldoxorubicin] | 9.2 | 3.8 | 2.2 | 6.8 | 7.4 | 7.3 | 5.8 | 8.3 | 3.2 | 6.5 | 10 | 8.3 |
| COc1ccc(-c2nc(N3CCOCC3)c3sc(CN(C)c4ncc(C(=O)NO)cn4)cc3n2)cn1 [CUDC-907] | 31.3 | 21.3 | 20.3 | 45.8 | 42.7 | 26.4 | 29.4 | 37 | 26.2 | 38.3 | 41.5 | 29.2 |
| Nc1cc(F)ccc1NC(=O)c1ccc(CNC(=O)/C=C/c2cccnc2)cc1 [Tucidinostat] | 4.3 | 3.9 | 0 | 14.7 | 10.8 | 3.5 | 2.1 | 7.2 | 1.7 | 7 | 8 | 3 |
| COc1cc2c(cc1-c1c(C)noc1C)ncc1[nH]c(=O)n([C@H](C)c3ccccn3)c12 [I-BET151] | 11.9 | 1.9 | 0.6 | 13.8 | 11.3 | 4.5 | 9.2 | 8.2 | 6.9 | 7.1 | 9.5 | 12 |
| CC(=O)Nc1ccc(C(=O)Nc2ccccc2N)cc1 [Tacedinaline] | 0 | 0 | 0 | 0.6 | 0.7 | 0 | 1.7 | 1.1 | 0.1 | 3.4 | 0 | 0 |
| CN(CC(=O)N(Cc1ccc(C2CCCCC2)cc1)c1ccc(C(=O)O)cc1)S(=O)(=O)c1c(F)c(F)c(F)c(F)c1F [SH-4-54] | 8.1 | 5.1 | 4.5 | 7.5 | 7.5 | 5.2 | 6.6 | 7.4 | 6.2 | 5.2 | 5.8 | 5.7 |
| CN1CCN(c2ccc3nc(-c4c(N)c5c(F)cccc5[nH]c4=O)[nH]c3c2)CC1 [Dovitinib] | 0 | 0 | 0 | 0 | 0 | 0 | 0 | 0 | 0.6 | 0 | 0 | 0 |
| O=C(c1ccc(F)c(F)c1Nc1ccc(I)cc1F)N1CC(O)([C@@H]2CCCCN2)C1 [Cobimetinib] | 8.5 | 0 | 3.5 | 0.9 | 3 | 4 | 4.6 | 25.7 | 1.4 | 8.8 | 2.4 | 8.9 |
| Cn1cc(C2=C(c3cn(C4CCN(Cc5ccccn5)CC4)c4ccccc34)C(=O)NC2=O)c2ccccc21 [Enzastaurin] | 0 | 0 | 1.6 | 0.2 | 1.5 | 0.1 | 0 | 0 | 0 | 2.6 | 4.2 | 2 |
| Cc1cc(Nc2cc(N3CCN(C)CC3)nc(Sc3ccc(NC(=O)C4CC4)cc3)n2)n[nH]1 [Tozasertib] | 25.2 | 1.3 | 1.6 | 5.2 | 6.8 | 2.1 | 3.6 | 6.4 | 5.8 | 6.1 | 6.5 | 2.3 |
| COc1cc(OC)cc(N(CCNC(C)C)c2ccc3ncc(-c4cnn(C)c4)nc3c2)c1 [Erdafitinib] | 0 | 3.5 | 0 | 3.2 | 11.2 | 0 | 0 | 0 | 2.6 | 0 | 0 | 0 |
| CO[C@H]1C(=O)[C@]2(C)[C@@H](OC)C[C@H]3OC[C@@]3(OC(C)=O)[C@H]2[C@H](OC(=O)c2ccccc2)[C@]2(O)C[C@H](OC(=O)[C@H](O)[C@@H](NC(=O)OC(C)(C)C)c3ccccc3)C(C)=C1C2(C)C [Cabazitaxel] | 29.3 | 7.3 | 7.8 | 29.9 | 29.8 | 12.8 | 10.7 | 13.2 | 4.3 | 25.6 | 30.6 | 9 |
| C/C(=C\c1csc(C)n1)[C@@H]1C[C@@H]2O[C@]2(C)CCC[C@H](C)[C@H](O)[C@@H](C)C(=O)C(C)(C)[C@@H](O)CC(=O)N1 [Ixabepilone] | 4.6 | 2.9 | 1.3 | 1.6 | 2 | 2.7 | 2.6 | 2.4 | 2.1 | 4.5 | 5.2 | 2 |
